Test results reported in publication PMC6005271.

Legend:
[1] = Ni-mediated reductive aryl-aryl (2-halopyridine) homo/cross-coupling forming the 2,2'-bipyridine C-C bond; [Ni(PPh3)2Br2] 1 eq, PPh3 2 eq, Mn 10 eq, NEt4I 1 eq; slow addition of dihalide over 4 h; conditions: DMF, 50.0 mM, 50.0 °C
[2] = Double Williamson ether macrocyclisation of preformed bipyridine precursor with a bis-electrophile, high dilution (previous syntheses); conditions: the molecule shown is the open-chain precursor; 25-membered ring; DMF; 72.0 h; cited from earlier work

c1cc2nc(c1)-c1cccc(n1)-c1ccc(cc1)OCCCCCCCOc1ccc(cc1)CCC2 [1g -> 2g (DMF-THF 3:1)]
ring closure, isolated yield ([1]; from Brc1cccc(CCCc2ccc(OCCCCCCCOc3ccc(-c4cccc(Br)n4)cc3)cc2)n1, 26-membered ring, 5.0 h): 66%

c1cc2nc(c1)-c1cccc(n1)-c1ccc(cc1)OCCOCCOCCOCCOc1ccc-2cc1 [1e -> 2e]
ring closure, isolated yield ([1]; from Brc1cccc(-c2ccc(OCCOCCOCCOCCOc3ccc(-c4cccc(Br)n4)cc3)cc2)n1, 27-membered ring, 5.0 h): 73%

c1cc2nc(c1)-c1cccc(n1)COCc1ccc(cc1)OCCCCOc1ccc(cc1)COC2 [S4 (dichloro analogue of 1b) -> 2b]
ring closure, isolated yield ([1]; from Clc1cccc(COCc2ccc(OCCCCOc3ccc(COCc4cccc(Cl)n4)cc3)cc2)n1, 26-membered ring): 56%

c1cc2nc(c1)-c1cccc(n1)OCCc1ccc(cc1)OCCCCOc1ccc(cc1)CCO2
ring closure, isolated yield ([1]; from Brc1cccc(OCCc2ccc(OCCCCOc3ccc(CCOc4cccc(Br)n4)cc3)cc2)n1, 26-membered ring, 5.0 h): 65%

c1cc2nc(c1)-c1cccc(n1)COCc1ccc(cc1)OCCCCOc1ccc(cc1)CCC2 [1f -> 2f]
ring closure, isolated yield ([1]; from Brc1cccc(CCCc2ccc(OCCCCOc3ccc(COCc4cccc(Br)n4)cc3)cc2)n1, 26-membered ring, 5.0 h): 76%

c1cc2nc(c1)-c1cccc(n1)-c1ccc(cc1)OCc1ccc(cc1)COc1ccc(cc1)CCC2
ring closure, isolated yield ([1]; from Brc1cccc(CCCc2ccc(OCc3ccc(COc4ccc(-c5cccc(Br)n5)cc4)cc3)cc2)n1, 25-membered ring, 5.0 h): 41%

c1cc2cc(c1)-c1cccc(n1)CCCc1ccc(cc1)OCCCCOc1ccc(cc1)COC2
ring closure, isolated yield ([1]; from Brc1cccc(CCCc2ccc(OCCCCOc3ccc(COCc4cccc(I)c4)cc3)cc2)n1, 26-membered ring, 5.0 h): 24%

c1cc2nc(c1)-c1cccc(n1)COCc1ccc(cc1)OCCCCCCCCCCOc1ccc(cc1)COC2 [1c -> 2c]
ring closure, isolated yield ([1]; from Brc1cccc(COCc2ccc(OCCCCCCCCCCOc3ccc(COCc4cccc(Br)n4)cc3)cc2)n1, 32-membered ring, 5.0 h): 67%

c1cc2nc(c1)-c1cccc(n1)COCc1ccc(cc1)OCCCCOc1ccc(cc1)COC2 [1b -> 2b]
ring closure, isolated yield ([1]; from Brc1cccc(COCc2ccc(OCCCCOc3ccc(COCc4cccc(Br)n4)cc3)cc2)n1, 26-membered ring, 5.0 h): 70%

c1cc2cc(c1)-c1cccc(n1)CCCc1ccc(cc1)OCCCCOc1ccc(cc1)COC2 [1i(Br) dibromo precursor -> 2i]
ring closure, isolated yield ([1]; from Brc1cccc(COCc2ccc(OCCCCOc3ccc(CCCc4cccc(Br)n4)cc3)cc2)c1, 26-membered ring): 16%

Oc1ccc(-c2cccc(-c3cccc(CCCc4ccc(OCc5ccc(CBr)cc5)cc4)n3)n2)cc1
ring closure, isolated yield [2]: 6%

c1cc2nc(c1)-c1cccc(n1)CCCc1ccc(cc1)OCCCCOc1ccc(cc1)CCC2 [1a -> 2a]
ring closure, isolated yield ([1]; from Brc1cccc(CCCc2ccc(OCCCCOc3ccc(CCCc4cccc(Br)n4)cc3)cc2)n1, 26-membered ring, 5.0 h): 71%
